In ChEMBL document CHEMBL3832761, “MMV Pathogen Box Bioactivity Data” (2017):
In brackets after ≈: the same amount, converted by molar mass.

Experiments:
[1] = system: Mycobacterium tuberculosis; assay: AntiMycobacterium tuberculosis activity 1-week 7H9/ADC/Tw MIC (uM); type: functional; details: 168 h
[2] = system: Mycobacterium tuberculosis; assay: (§1) AntiMycobacterium tuberculosis activity day 10 in 7H9/2.5mM butyrate/pH6/0.1mM nitrite MIC90 (uM); type: functional; details: 240 h
[3] = system: Mycobacterium tuberculosis; assay: AntiMycobacterium tuberculosis activity 1-week 7H9/glucose/BSA/Tx MIC (uM); type: functional; details: 168 h
[4] = system: Mycobacterium tuberculosis; assay: as §1; type: functional; details: 240 h; remark: listed apart in the source
[5] = system: Mycobacterium tuberculosis; assay: AntiMycobacterium tuberculosis activity day 21 in 7H9/2.5mM butyrate/pH6/0.1mM nitrite MIC90 (uM); type: functional; details: 504 h
[6] = system: Mycobacterium tuberculosis; assay: AntiMycobacterium tuberculosis activity 2-week 7H9/DPPC/cholesterol/BSA/Tx MIC (uM); type: functional; details: 336 h
[7] = system: Mycobacterium tuberculosis; assay: AntiMycobacterium tuberculosis activity 2-week GAST/Fe MIC (uM); type: functional; details: 336 h
[8] = system: Mycobacterium tuberculosis; assay: AntiMycobacterium tuberculosis activity 2-week Alamar Blue 7H9/cholesterol/BSA/Tx MIC (uM); type: functional; details: 336 h
[9] = system: Mycobacterium tuberculosis; assay: AntiMycobacterium tuberculosis activity 2-week 7H9/ADC/Tw MIC (uM); type: functional; details: 336 h
[10] = system: Mycobacterium tuberculosis; assay: AntiMycobacterium tuberculosis activity 1-week GAST/Fe MIC (uM); type: functional; details: 168 h
[11] = system: Mycobacterium tuberculosis; assay: AntiMycobacterium tuberculosis activity 1-week 7H9/cholesterol/BSA/Tx MIC (uM); type: functional; details: 168 h
[12] = system: Mycobacterium tuberculosis; assay: AntiMycobacterium tuberculosis activity 1-week 7H9/DPPC/cholesterol/BSA/Tx MIC (uM); type: functional; details: 168 h
[13] = system: Mycobacterium tuberculosis; assay: AntiMycobacterium tuberculosis activity 2-week Alamar Blue 7H9/ADC/Tw MIC (uM); type: functional; details: 336 h
[14] = system: Mycobacterium tuberculosis; assay: AntiMycobacterium tuberculosis activity day 21 MIC99 in 7H9/2.5mM butyrate/pH6/0.1mM nitrite MIC99 (uM); type: functional; details: 504 h
[15] = system: HepG2; assay: HepG2 galactose CC50 (uM) Cytotoxicity; type: functional; details: Homo sapiens, HepG2
[16] = system: Mycobacterium tuberculosis; assay: AntiMycobacterium tuberculosis activity 2-week 7H9/glucose/BSA/Tx MIC (uM); type: functional; details: 336 h
[17] = system: HepG2; assay: HepG2 glucose CC50 (uM) Cytotoxicity; type: functional; details: Homo sapiens, HepG2
[18] = system: HepG2; assay: Cytotoxicity data HepG2 CC20 (uM); type: functional
[19] = HL60 CC50 (uM) Cytotoxicity; type: functional; details: HL-60
[20] = system: Plasmodium falciparum; assay: Antimalarial activity: Asexual Blood Stage Plasmodium falciparum 3D7 IC50 (uM); type: functional, organism-based
[21] = system: Plasmodium falciparum; assay: Antimalarial activity: Asexual Blood Stage Plasmodium falciparum Dd2 IC50 (uM); type: functional, organism-based
[22] = system: Plasmodium berghei; assay: Antimalarial activity: Liver Stage Plasmodium berghei sporozoite Luciferase assay: inhibition at 10 uM (%); type: functional
[23] = system: Plasmodium falciparum; assay: Antimalarial activity: Gametocytes Plasmodium falciparum NF54 Gametocytes Stage V: inhibition at 10 uM (%); type: functional
[24] = system: Plasmodium falciparum; assay: Antimalarial activity: Asexual Blood Stage Plasmodium falciparum W2 IC50 (uM); type: functional, organism-based
[25] = system: HepG2; assay: HepG2 inhibition at 10 uM (%) Cytotoxicity; type: functional; details: Homo sapiens

SMILES	MIC [1] [µM]	MIC90 [2] [µM]	MIC [3] [µM]	MIC90 [4] [µM]	MIC90 [5] [µM]	MIC [6] [µM]	MIC [7] [µM]	MIC [8] [µM]	MIC [9] [µM]	MIC [10] [µM]	MIC [11] [µM]	MIC [12] [µM]	CC20 [18] [nM]	CC50 [19] [nM]	IC50 [20] [nM]	IC50 [21] [nM]	Inhibition [22] [%]	Inhibition [23] [%]	IC50 [24] [nM]	inhibition at 10 µM [25] [%]	other results
O=C(c1ccco1)N(CCCn1ccnc1)c1nc2c(Cl)cccc2s1	≥ 50	> 50	50 (≈ 19.3 µg/mL)	25 (≈ 9.67 µg/mL)	25 (≈ 9.67 µg/mL)	37 (≈ 14.3 µg/mL)	37 (≈ 14.3 µg/mL)	12.5 (≈ 4.84 µg/mL)	50 (≈ 19.3 µg/mL)	25 (≈ 9.67 µg/mL)	12.5 (≈ 4.84 µg/mL)	37 (≈ 14.3 µg/mL)	–	–	–	–	–	–	–	–	MIC [13]: 25 µM (≈ 9.67 µg/mL); MIC [14]: > 50 µM; CC50 [15]: > 50000 nM; MIC [16]: 37 µM (≈ 14.3 µg/mL); CC50 [17]: > 50000 nM
c1ccc(-c2nc(NC3CCCCC3)cc(C3CC3)n2)nc1	37 (≈ 10.9 µg/mL)	50 (≈ 14.7 µg/mL)	37 (≈ 10.9 µg/mL)	25 (≈ 7.36 µg/mL)	50 (≈ 14.7 µg/mL)	50 (≈ 14.7 µg/mL)	25 (≈ 7.36 µg/mL)	9.4 (≈ 2.77 µg/mL)	50 (≈ 14.7 µg/mL)	25 (≈ 7.36 µg/mL)	19 (≈ 5.59 µg/mL)	25 (≈ 7.36 µg/mL)	–	–	–	–	–	–	–	–	MIC [13]: 37 µM (≈ 10.9 µg/mL); MIC [14]: > 50 µM; CC50 [15]: > 50000 nM; MIC [16]: 50 µM (≈ 14.7 µg/mL); CC50 [17]: > 50000 nM
COc1cc(CN2CCC3(C=Cc4ccccc43)CC2)cc2c1OCO2	1.2 (≈ 0.419 µg/mL)	12.5 (≈ 4.37 µg/mL)	2.3 (≈ 0.804 µg/mL)	6.25 (≈ 2.18 µg/mL)	6.25 (≈ 2.18 µg/mL)	2.3 (≈ 0.804 µg/mL)	0.78 (≈ 0.273 µg/mL)	2.3 (≈ 0.804 µg/mL)	0.78 (≈ 0.273 µg/mL)	0.6 (≈ 0.21 µg/mL)	1.56 (≈ 0.545 µg/mL)	1.56 (≈ 0.545 µg/mL)	–	–	–	–	–	–	–	–	MIC [13]: 0.78 µM (≈ 0.273 µg/mL); MIC [14]: 12.5 µM (≈ 4.37 µg/mL); CC50 [15]: > 50000 nM; MIC [16]: 2.3 µM (≈ 0.804 µg/mL); CC50 [17]: > 50000 nM
Clc1ccc(CCNc2cc(-c3ccccc3)nc3ncnn23)cc1	50 (≈ 17.5 µg/mL)	> 50	50 (≈ 17.5 µg/mL)	6.25 (≈ 2.19 µg/mL)	25 (≈ 8.75 µg/mL)	> 50	1.2 (≈ 0.42 µg/mL)	3.13 (≈ 1.09 µg/mL)	> 50	0.3 (≈ 0.105 µg/mL)	3.13 (≈ 1.09 µg/mL)	4.7 (≈ 1.64 µg/mL)	–	–	–	–	–	–	–	–	MIC [13]: 6.25 µM (≈ 2.19 µg/mL); MIC [14]: > 50 µM; CC50 [15]: > 50000 nM; MIC [16]: > 50 µM; CC50 [17]: > 50000 nM
CC(=O)Nc1ccc(NC(=O)c2cc(-c3cc(Cl)ccc3O)n[nH]2)cc1	–	–	–	–	–	–	–	–	–	–	–	–	>80000	> 50000	350	480	0	6	510	7	–
CCCS(=O)(=O)N1CCC(CO)(Cc2ccccc2C(F)(F)F)CC1	–	–	–	–	–	–	–	–	–	–	–	–	>80000	> 50000	1090	990	43	19	1550	0	–
CN1CCN(c2nccc3[nH]c(-c4cccc(F)c4)cc23)CC1	–	–	–	–	–	–	–	–	–	–	–	–	10400	> 12500	1460	2100	40	29	2630	2	–
CC(C)(C)c1cc(C(=O)Nc2cccnc2)cc(C(=O)Nc2cccnc2)c1	–	–	–	–	–	–	–	–	–	–	–	–	17200	> 50000	900	1630	12	10	1880	19	–
OCc1ccc(-c2cncc(Nc3cccc(Cl)c3)c2)cc1	–	–	–	–	–	–	–	–	–	–	–	–	20500	> 25000	30	10	57	5	–	7	–
CC(C)(C)CN1C(=O)C(c2ccccc2)(c2ccccc2)N=C1N	–	–	–	–	–	–	–	–	–	–	–	–	1170	6500	800	1500	25	2	> 2000	0	–
O=C(Nc1cccc(-c2ccc(NCCCN3CCCC3)nc2)c1)c1ccccc1	–	–	–	–	–	–	–	–	–	–	–	–	17200	> 50000	850	2740	25	7	1660	0	–
CC(C)(C)c1cc(C(=O)N2CCN(c3nccnc3C#N)CC2)n(Cc2ccccc2)n1	–	–	–	–	–	–	–	–	–	–	–	–	22900	> 50000	600	1000	42	8	1300	0	–
